US20100040568A1, “Steroidal compounds as melanogenesis modifiers and uses thereof” (SkinMedica, Inc., priority 2008, published 2010)

Test system: African-American skin equivalent (MEL-B)
Test: MelanoDerm pigmentation assay, African-American skin equivalent
Assay type: cell-based, human
Description: MelanoDerm™, made by MatTek Corp., is a viable reconstituted three-dimensional human skin equivalent containing normal melanocytes and keratinocytes that are derived from African-American (MEL-B), Asian (MEL-A) or Caucasian (MEL-C) donors. Both MEL-A and MEL-B tissues were used in the current study, and they were maintained in the NMM-113 medium as recommended by the manufacturer.
Conessine (from Sigma) was dissolved in 30% ethanol: 70% propylene glycol to a final concentration of 1.0 mM (equal to 356.6 μg/ml), and this was maintained constant and used on all samples tested. A 25 μl of its aliquot was applied topically to the MelanoDerm™ tissue (MEL-B) on Days 0, 1, 3, 6, 8 and 10. The MelanoDerm™ tissues were fed every other day with 5 ml fresh NMM-113. Prior to each application, the tissues were washed with 1 ml PBS to remove any residual test compound. Tissues were fixed on Days 10 and 13 for microscopic analysis and histological evaluation. In addition, duplicate tissues were frozen on Days 10 and 13 for the melanin assay.
The experiments were repeated twice on both MEL-A and MEL-B tissues from different lots to make sure that the results are reproducible (study 1 or 2). For each experiment, six tissues were treated with conessine, and six were treated with […] (30% ethanol: 70% PEG) or arbutin if applicable. For MEL-B, on day 10, three tissues under each treatment condition were taken out, and one was used for histological studies and the other two were used for the melanin assay. The same protocol was followed with the MEL-B samples after 13 days' treatment and MEL-A after either 13 or 16 days' treatments.
Procedure 1: the effects of conessine on melanin synthesis in MEL-A or B were evaluated by light microscopy (views from the top surface of the tissue). Procedure 2: the distribution of melanin in the treated-MEL-A or B was accessed by image analysis using Fontana-Masson stained histological sections (views from the side of the tissue).
MelanoDerm™, made by MatTek Corp., is a viable reconstituted three-dimensional human skin equivalent containing normal melanocytes and keratinocytes that are derived from African-American (MEL-B), Asian (MEL-A) or Caucasian (MEL-C) donors. It has human skin-like structure and undergoes progressive tissue darkening over the course of 2-3 weeks. MelanoDerm™ provides a useful in vitro means for evaluation of agents that modulate pigmentation. Human skin equivalent models such as MelanoDerm™ provide an alternative to clinical and animal testing for evaluating the effects of putative bioactive compounds on mammalian pigmentation. MelanoDerm™ is considered a more physiologically relevant model than melanocytes alone or melanocyte-keratinocyte co-cultures. Both MEL-A and MEL-B tissues were used in the current study, and they were maintained in the NMM-113 medium as recommended by the manufacturer. In this model, substantial accumulation of newly synthesized melanin occurs over a two to three week period.
Conessine and Licorice extract were dissolved in 30% ethanol: 70% propylene glycol (PEG) to a final concentration of 0.036% (0.36 mg/ml). A 25 μl aliquot of each compound was applied topically to the Asian MelanoDerm™ tissue (MEL-A) on Days 0, 1, 3, 6, 8, 10 and 13. The MelanoDerm™ tissues were fed every other day with 5 ml fresh NMM-113. Prior to each application, the tissues were washed with 1 ml PBS to remove any residual test compound. Tissues were fixed on Days 13 and 16 for microscopic analysis and histological evaluation. In addition, duplicate tissues were frozen on Days 13 and 16 for melanin assay. 30% ethanol: 70% PEG was used as negative control. Cell viability was measured in accordance with the manufacturer's instructions using the MTT assay kit (MatTek Corp., Ashland, Mass. 01721). One MEL-A tissue from each condition was harvested on day 2 and 7, and MTT assay was performed. Similar experiments were performed on MEL-B.

## CC1C2CCC3C4CC=C5CC(N(C)C)CCC5(C)C4CCC32CN1C (stereo not shown) [Compound 1, Conessine]
1.0 mM topical, days 10 and 13, compared with control-treated
  decrease of melanin content (Fontana-Masson staining, image analysis): 50-60%
0.036% topical
  colour by light microscopy: considerable decrease in the color of MEL-B
0.036% topical, 10 or 13 days
  decrease of melanin content (quantitative melanin assay): about 30%
0.036% topical, day 10, 8 sections
  melanin content compared to the vehicle-treated tissues (Fontana-Masson sections, quantitative analysis): 73.61%
0.036% topical, day 13, 8 sections
  melanin content compared to the vehicle-treated tissues (Fontana-Masson sections, quantitative analysis): 62.43%
Arbutin 3 mg/ml, conessine and licorice 0.36 mg/ml, extract 1:50
  effectiveness as depigmenting agent (comparison): more effective than either Licorice extract or arbutin
Conessine 0.36 mg/ml, extract diluted 1:50, 25 μl topical, days 10 and 13
  melanin content by Fontana-Masson staining: decreases significantly
